“Also recorded” adds a separate entry of the source.
Legend:
[1] = test system: intra-macrophage PA (XDR); assay: 24 h intracellular infection model: intra-macrophage PA (XDR) in RAW 264.7 cells; type: cell-based, Pseudomonas aeruginosa; conditions: MOI 10, 3 μg/mL ciprofloxacin equivalent
Description: FIGS. 5A-5C. […] Data shown reflect mean±SD of three replicates.
However, a critical gap exists in our general understanding of how macrophages respond physiologically to the thiol antioxidant inhibition strategy. Here, we will examine how the thiol antioxidant inhibition strategy (i.e., increased ROS levels) contributes to macrophages killing and intracellular persister cell death.

TNF-α = TNF-α secretion by RAW 264.7 cells; type: cell-based, murine; conditions: 2 μg/mL of ciprofloxacin
[2] = test system: ciprofloxacin-induced persister cells from PA (XDR); assay: Eradication of ciprofloxacin-induced persister cells from PA (XDR); type: cell-based, Pseudomonas aeruginosa; conditions: 3 μg/mL ciprofloxacin equivalent, 24 h in PBS; persisters generated with 600 μg/mL ciprofloxacin
Protocol: FIGS. 3A-3E. […] Data shown reflect mean±SD of three replicates.
After removing the drugs, the surviving bacteria were enumerated. […] The steady-state level of H2O2 inside the unstressed aerobic bacterial cell has been projected to be about 50 nM (47). […] The H2O2 level was quantified by measuring the area under the curve (AUC) (FIGS. 3B, 3C).

[3] = test system: extensively drug-resistant (XDR) PA; assay: Growth inhibition (MIC) of extensively drug-resistant PA; type: cell-based, Pseudomonas aeruginosa; conditions: for AuNC, concentration of ciprofloxacin within the AuNC
Description: FIGS. 2A-2F. […] PA01 is sensitized (FIGS. 2A-2B). […]. […] Data shown reflect mean±SD of three replicates.
H2O2 contributes causatively to antibiotics lethality (48). H2O2 is generated as a downstream physiological consequence of antibiotics interacting with their traditional targets. […] Thus, the main challenge to reach lethal H2O2 levels in resistant bacteria is to design molecules that inhibit the antioxidant defense mechanisms. […].

`O=C(O)c1cn(C2CC2)c2cc(N3CCNCC3)c(F)cc2c1=O` [ciprofloxacin] was tested, and the “residual intra-macrophage bacteria (CFU), in words” value [1] was “fails; also recorded: no significant difference”, the “average TNF levels” value (TNF-α) was 53.75 ± 2 pg/mL and the “eradication of persister cells (in words)” value [2] was “fails; also recorded: survival persisters”. The “ciprofloxacin concentration that inhibits growth of PA (XDR)” value [3] was greater than 127.6 µg/mL.
